Experiments:
Set-up in all cases: key: “+” indicates that the compound exibits inhibitory activity; “−” indicates that low or no inhibitory activity was observed
[1] = tested on: HeLa cells; experiment: Cell proliferation assay, photographic image analysis of proliferation, apoptosis and death (PAD assay), HeLa; type: cell-based; conditions: 6 concentrations tested
In short: (§1)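 Cells grown in RPMI with 5% FBS (2,000/well) and dosed 24 h after plating with 6.3-fold dilutions in duplicate (master plate 500× final, top 10 mM stock). After 48 h at 37 °C, cells formamide-fixed and DAPI-stained. Image analysis counted live, apoptotic and dead cells.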

[2] = tested on: A549 cells; experiment: Cell proliferation assay, photographic image analysis of proliferation, apoptosis and death (PAD assay), A549; type: cell-based; conditions: 6 concentrations tested
In short: as §1

[3] = tested on: A549 cells; experiment: Non-photographic proliferation analysis (Promega Cell titer Aqueous), A549; type: cell-based; conditions: 6 concentrations tested
In short: (§2)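 HeLa, A549 and HCT116 cells, 2,000 per well in RPMI with 5% FBS, were given compounds 24 h after plating as 6.3-fold duplicate dilutions from 10 mM stock, diluted 500-fold into the wells. After 48 h at 37° C, 5% CO2, Cell titer Aqueous reagent was added for 45 min and absorbance read at 490 nm.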

[4] = biological target: E3 (His-APC11/APC2-"APC") (Homo sapiens, UniProt Q9NYG5+Q9UJX6); experiment: Gel-based E3 ligase assay, auto-ubiquitination; type: biochemical
Chain of E3 (His-APC11/APC2-"APC") (Q9NYG5 whole entry): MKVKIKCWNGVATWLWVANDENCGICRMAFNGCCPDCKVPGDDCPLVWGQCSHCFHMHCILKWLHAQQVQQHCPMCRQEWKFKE
Chain of E3 (His-APC11/APC2-"APC") (Q9UJX6 whole entry): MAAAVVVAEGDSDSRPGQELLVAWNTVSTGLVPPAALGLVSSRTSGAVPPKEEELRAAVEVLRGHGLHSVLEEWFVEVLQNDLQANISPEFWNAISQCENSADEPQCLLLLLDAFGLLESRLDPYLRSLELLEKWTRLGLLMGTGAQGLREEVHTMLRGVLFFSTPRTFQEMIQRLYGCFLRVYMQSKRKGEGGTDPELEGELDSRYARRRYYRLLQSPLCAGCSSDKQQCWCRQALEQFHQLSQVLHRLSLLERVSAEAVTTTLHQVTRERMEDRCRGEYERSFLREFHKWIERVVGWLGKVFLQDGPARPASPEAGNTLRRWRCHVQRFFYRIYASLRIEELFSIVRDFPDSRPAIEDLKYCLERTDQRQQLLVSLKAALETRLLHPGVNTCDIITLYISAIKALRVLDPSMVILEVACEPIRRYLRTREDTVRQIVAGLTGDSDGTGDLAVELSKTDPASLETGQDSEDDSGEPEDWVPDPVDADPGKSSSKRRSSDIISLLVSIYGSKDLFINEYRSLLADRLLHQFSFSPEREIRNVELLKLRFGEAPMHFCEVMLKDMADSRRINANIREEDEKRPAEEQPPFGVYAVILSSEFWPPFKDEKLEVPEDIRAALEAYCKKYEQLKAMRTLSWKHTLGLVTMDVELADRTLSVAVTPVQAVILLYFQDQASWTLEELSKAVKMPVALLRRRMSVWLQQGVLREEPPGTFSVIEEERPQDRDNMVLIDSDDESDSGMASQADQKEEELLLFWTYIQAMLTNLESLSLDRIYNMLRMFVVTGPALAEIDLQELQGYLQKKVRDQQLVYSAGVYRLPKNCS
Method: E3 (His-APC11/APC2-“APC”) auto-ubiquitination was measured as described in U.S. patent application Ser. No. 09/826,312 (Publication No. U.S. Pat. No. 2,002,0042083-A1), which is incorporated herein in its entirety. Details of the protocol are described below. Activity in the presence of compound was determined relative to a parallel control in which only DMSO is added. The IC50 values were typically determined using 6 or 8 different concentrations of compound, although as few as 2 concentrations may be used to approximate the IC50 values.
Corning 96-well plates (Corning 3650) were blocked with 100 μl of Blocking Buffer for 1 hour at room temperature. The plates were washed 4 times with 225 μl of 1×PBS and 80 μl of the reaction buffer were added that contained 100 ng/well of Flag-ubiquitin. To this, 10 μl of the test compound diluted in DMSO were added. After the test compound was added, 10 μl of E1 (human), E2 (Ubch5c) and APC in Protein Buffer were added to obtain a final concentration of 5 ng/well of E1, 20 ng/well of E2 and 100 ng/well APC. The plates were shaken for 10 minutes and incubated at room temperature for 1 hour. After incubation, the reaction was stopped by adding 25 μl of loading buffer (non-reducing) per well and the plates were heated at 95° C. for 5 minutes. An aliquot of each well was run on a 10% NugePage Gel and analyzed by Western Blot using the antibody mix and Lumino substrate described below. The luminescence was measured by using a BMG luminescence microplate reader.
To prepare the Blocking Buffer (1 liter; 1% Casein in 1×PBS), 10 grams of Casein (Hammersten Grade Casein from Gallard-Schlesinger Inc. #440203) were placed into 1 liter of 1×PBS, stirred on a hot plate and kept between 50-60° C. for an hour. The buffer was allowed to cool to room temperature and then filtered using a Buchner Funnel (Buchner filter funnel 83 mm 30310-109) and Whatman filter paper (Whatman Grade No. 1 Filter paper 28450-070). It was stored at 4° C. until used.
The reaction buffer consisted of 62.5 mM Tris pH 7.6 (Trizma Base—Sigma T-8524), 3 mM MgCl2 (Magnesium Chloride—Sigma M-2393), 1 mM DTT (Sigma D-9779), 2.5 mM ATP (Roche Boehringer Mann Corp. 635-316), 100 ng/well of Flag-ubiquitin, 0.1% BSA (Sigma A-7906), and 0.05% Tween-20 (Sigma P-7949).
The Protein Buffer consisted of 20 mM Tris pH 7.6, 10% glycerol (Sigma G-5516) and 1 mM DTT.
The antibody mix consisted of 0.25% BSA (Sigma A-7906) in 1×PBS, 1/50,000 anti-Flag (Sigma F-3165), 1/100,000 of anti-Mouse IgG-HRP (Jackson Immunoresearch #115-035-146).
The substrate mix consisted of SuperSignal Substrate from Pierce (catalog number 37070ZZ) and was prepared by mixing 100 ml of the peroxide solution, 100 ml of the enhancer solution and 100 ml of Millie water.

[5] = tested on: HeLa cells; experiment: Non-photographic proliferation analysis (Promega Cell titer Aqueous), HeLa; type: cell-based; conditions: 6 concentrations tested
In short: as §2

[6] = tested on: HCT116 cells; experiment: Cell proliferation assay, photographic image analysis of proliferation, apoptosis and death (PAD assay), HCT116; type: cell-based; conditions: 6 concentrations tested
Method: A549 (ATCC# CCL-185), HeLa (ATCC# CCL-2), HCT116 (ATCC# CCL-247), and H1299 (ATCC# CRL-5803) cells were maintained in T175 flasks following the ATCC recommended media and handling procedures. Flasks reaching approximately 70% confluency were trypsinized and resuspended in RPMI media (Cell-Gro catalog number 10-040-CM) modified to contain 5% FBS, 100 ug/mlPen/Strep (Cell-Gro catalog number 30-002-CL), and 0.3 mg/ml L-Glutamine (Cell-Gro catalog number 25-003-CL). A 20,000 cells/ml solution was made for plating. Cells were plated in black Packard 96 well plates by placing 100 μl per well (2,000 cells per well).
Compounds and additional media were added 24 hours after cell plating. A compound master plate was created with concentrations 500 times greater than the final concentration added to the cells. All compound testing was done in duplicate using 6.3 fold dilutions starting with 10 mM. All outside wells (and 4 internal wells) were DMSO controls. Taxol and at least one additional control were run on all plates. Three microliters of the compound master plate were added to deep well blocks containing 750 μl of RPMI media. One hundred microliters were transferred from the compound/media deep well blocks to the plated cells resulting in a 500 fold dilution of the compounds. Cells were grown at 37° C., 5% CO2 for 48 hours.
Cells to be analyzed by photography were fixed and stained. One hundred microliters of media were removed and 100 μl of 9.3% […] was added to each well. Plates were left on the benchtop for 45 minutes. A staining solution containing 1.55 μl of 1 mg/ml DAPI added to 18.75 ml PBS was warmed for 15 minutes at 37° C. The cells were aspirated prior to washing with 100 μl of PBS. Seventy microliters of PBS were aspirated and 170 μl of the DAPI solution were added to each well of fixed cells. Plates were left at room temperature for one hour then aspirated and washed twice with 100 μl of PBS. The stained cells were left at 4° C. for a minimum of 16 hours before photographic analysis with Array Scan II (Cellomics). Analysis of the photographic images to determine numbers of live cells (proliferation), apoptotic cells and dead cells, were according to the methods described in U.S. Provisional Patent Application Ser. No. 60/406,714, which incorporated herein in its entirety.

Compound	APC Flag (gel) [4]	PAD Assay, HELA 6 pt [1]	PAD Assay, A549 6 pt [2]	Cell Titer-Aqueous, A549 6 pt [3]	Cell Titer-Aqueous, HELA 6 pt [5]	PAD Assay, HCT116 6 pt [6]
CSc1ccccc1NS(=O)(=O)c1cc(Cl)c(Oc2ccc([N+](=O)[O-])cc2Cl)c(Cl)c1 [Example 191, 3,5-dichloro-4-(2-chloro-4-nitrophenoxy)-N-[2-(methylthio)phenyl]benzenesulfonamide]	− (gel)	+	+			+
NC(=O)c1ccccc1NS(=O)(=O)c1cc(Cl)c(Oc2ccc([N+](=O)[O-])cc2Cl)c(Cl)c1 [Example 193, 2-({[3,5-dichloro-4-(2-chloro-4-nitrophenoxy)phenyl]sulfonyl}amino)benzamide]	− (gel)					
O=[N+]([O-])c1ccc(Oc2c(Cl)cc(S(=O)(=O)NCCc3ccc(O)cc3)cc2Cl)c(Cl)c1 [Example 223, 3,5-dichloro-4-(2-chloro-4-nitrophenoxy)-N-[2-(4-hydroxyphenyl)ethyl]benzene-sulfonamide]	− (gel)			−	−	

Further lines, with some results ahead:

APC Flag (gel) [4]	Compound	PAD Assay, HELA 6 pt [1]	PAD Assay, A549 6 pt [2]	Cell Titer-Aqueous, A549 6 pt [3]	Cell Titer-Aqueous, HELA 6 pt [5]	PAD Assay, HCT116 6 pt [6]
+ (gel)	O=[N+]([O-])c1ccc(Oc2c(Cl)cc(S(=O)(=O)Nc3ccc4cc[nH]c4c3)cc2Cl)c(Cl)c1 [Example 172, 3,5-dichloro-4-(2-chloro-4-nitrophenoxy)-N-1H-indol-6-ylbenzenesulfonamide]	+	+	+	+	
− (gel)	O=[N+]([O-])c1ccc(Oc2c(Cl)cc(S(=O)(=O)Nc3ccncc3)cc2Cl)c(Cl)c1 [Example 221, 3,5-dichloro-4-(2-chloro-4-nitrophenoxy)-N-pyridin-4-ylbenzenesulfonamide]	−	−	−	−	
